The text below walks through data of patent US7691966B2, “Method for quantitative analysis for prolyl hydroxylase activity using fluorescence polarization” (Korea Institute of Science and Technology, priority 2005, dated 2010).

For assay [1], the target named is T1, VBC protein (Homo sapiens, UniProt P40337).
T1 construct: made in house; host or cells: E. coli BL21 (DE3)
The assay is described as follows: Fluorescence polarization binding of fluorescent labeled HIF-1 peptide to VBC protein. The source says:
Human von Hippel-Lindau gene fragment (corresponding to 54˜213 a.a. region of the amino acid sequence represented by GenBank Accession No: NM000551) and human Elongin B fragment (corresponding to 1˜118 a.a. region of the amino acid sequence represented by GenBank Accession No: NM007108) were inserted into a modified pGEX-4T-1, resulting in plasmid pGEX4T-VHL-EB. Likewise, human Elongin C fragment (corresponding to 17˜112 a.a. region of the amino acid sequence represented by GenBank Accession No: NM005648) was inserted into pET29b vector, resulting in plasmid PDEV-EC (Novagen). The plasmids were co-expressed massively in E. coli BL21 (DE3) (Novagen).
(§1) Fluorescence polarization changes were measured during the formation of protein-ligand complex of VBC protein and the above peptides prepared in Example 1, to investigate binding capacity and characteristics thereof. Fluorescence polarization was measured by using fluorometer (Perkin-Elmer), and the size of slit was 5 nm and integration time was 5 seconds. A buffer solution containing 50 mM Tris and 120 mM NaCl, pH 8.0, was supplemented with NP-40 (nonidet P40) by 0.5%, for being utilized for the experiments of binding and interaction.
After mixing, fluorescence polarization was measured.
Background: In fluorescence polarisation assays a small probe gives low polarisation when free and higher when bound to something large.

Assay [2] has as its target T1, VBC protein. The experiment in a line: Fluorescence polarization competition assay for inhibitors of F-HyP564 peptide-VBC protein binding. To be noted: 100 nM F-HyP564, 500 nM VBC, competitor 0 to 500 μM. As for the experimental part: as §1
Fluorescence polarization of the reaction solution was measured.
After mixing, fluorescence polarization changes were measured.

For the compound `CC[C@H](C)[C@H](NC(=O)[C@H](Cc1ccc(O)cc1)NC(=O)[C@@H]1C[C@@H](O)CN1C(=O)[C@H](C)NC(=O)[C@H](CC(C)C)NC(=O)[C@H](C)NC(=O)[C@H](CCC(=O)O)NC(=O)[C@H](CC(C)C)NC(=O)[C@H](CC(=O)O)NC(=O)[C@H](CC(C)C)NC(=O)[C@H](CC(=O)O)NC(=O)CCCCCNC(=S)Nc1ccc2c(c1)C(=O)OC21c2ccc(O)cc2Oc2cc(O)ccc21)C(=O)N1CCC[C@H]1C(=O)N[C@@H](C)C(=O)N[C@@H](CC(=O)O)C(=O)N[C@@H](CC(=O)O)C(=O)N[C@@H](CC(=O)O)C(=O)N[C@@H](Cc1ccccc1)C(=O)N[C@@H](CCC(N)=O)C(=O)N[C@@H](CC(C)C)C(=O)N[C@@H](CCCNC(=N)N)C(=O)O` [F-HyP564], the “fluorescence polarization of reactant with VBC protein compared with probe itself” value in assay [1] (reacted with VBC protein at 25° C.) is recorded as “remarkably increased”. For `CC[C@H](C)[C@H](NC(=O)[C@H](Cc1ccc(O)cc1)NC(=O)[C@@H]1C[C@@H](O)CN1C(=O)[C@H](C)NC(=O)[C@H](CC(C)C)NC(=O)[C@H](C)N)C(=O)N1CCC[C@H]1C(=O)N[C@@H](C)C(=O)O` [Hy-N fragment, ALAHyPYIPA], in assay [2], the “fluorescence polarization change on addition of competitor peptide” value was “remarkably decreased”. Consider ALAPYIPA [N], for which the “fluorescence polarization change on addition of competitor peptide” value in assay [2] was “only a slight decrease”. Same read-out and setting: the same measure for DDDFQLR [C]: “only a slight decrease”. As for “F-P564: FITC-aminocaproic acid-labeled HIF-1α 556-575 peptide without hydroxyproline, SEQ ID NO:1”, the fluorescence polarization value in assay [1] (100 nM peptide, 800 nM VBC protein, 25° C.) was determined as 0.066.
